In patent publication US8426420B2, “Heterocyclic pyrazole-carboxamidesas P2Y12 antagonists” (Sanofi, priority 2007, dated 2013) one finds IC50 data, which are given here for 18 molecules.

One assay deals with human P2Y12 receptor (Homo sapiens, UniProt Q9H244). Briefly: Human P2Y12 recombinant cell membrane binding assay with 33P 2MeS-ADP. Conditions: competition against 33P 2MeS-ADP, membranes of CHO cells with recombinant human P2Y12 receptor. A digest of the protocol: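 Competition binding against radiolabeled 2MeS-ADP (1.61 nM as added) on membranes from recombinant human P2Y12 CHO cells, 20 min RT after 15 min compound preincubation, pH 7.4. Filtration then scintillation counting; compounds tested in triplicate from 10 μM final, five-fold dilutions, curve fit with plate-defined min/max.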

Assay [1] deals with human platelet rich plasma. Briefly: Inhibition of human platelet aggregation, 96-well assay. The assay is classed as cell-based. The gist of the method: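 ADP-induced aggregation read as 650 nm absorbance every minute for 20 min at 37 °C, with shaking between reads. PRP (~3×E8 platelets/ml, diluted with PPP, ACD-A blood from healthy volunteers) was exposed to compound for 5 min before adding a 40 μM ADP stock (15 μl into 150 μl).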

Sequence of human P2Y12 receptor (Q9H244 whole entry): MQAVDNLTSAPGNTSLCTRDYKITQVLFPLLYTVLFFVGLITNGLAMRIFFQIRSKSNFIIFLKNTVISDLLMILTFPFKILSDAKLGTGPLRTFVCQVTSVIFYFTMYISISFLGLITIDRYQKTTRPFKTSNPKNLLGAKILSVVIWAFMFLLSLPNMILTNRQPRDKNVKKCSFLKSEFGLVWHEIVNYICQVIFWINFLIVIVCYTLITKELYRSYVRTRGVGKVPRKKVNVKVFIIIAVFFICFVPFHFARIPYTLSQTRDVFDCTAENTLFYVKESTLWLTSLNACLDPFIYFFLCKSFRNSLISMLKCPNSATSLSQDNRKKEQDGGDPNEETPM

For the molecule `COc1cccc(N2CCN(C(=O)[C@H](CCC(=O)O)NC(=O)c3cc(OCC(=O)N4CCC[C@H]4C(=O)NC4CCC4)n(-c4ccccc4)n3)CC2)c1` [Example 101, (S)-4-({5-[2-((S)-2-Cyclobutylcarbamoyl-pyrrolidin-1-yl)-2-oxo-ethoxy]-1-phenyl-1H-pyrazole-3-carbonyl}-amino)-5-[4-(3-methoxy-phenyl)-piperazin-1-yl]-5-oxo-pentanoic acid], the IC50 on human P2Y12 receptor came out at 77 nM; in assay [1] (Homo sapiens, Platelet, 20 min), 790 nM.
The matching figures for `CCCCOC(=O)N1CCN(C(=O)[C@@H](NC(=O)c2cc(OCC(=O)N3CCC[C@H]3C(=O)NC3CCC3)n(-c3ccccc3)n2)C(C)C)CC1` [Example 222, 4-[(S)-2-({5-[2-((S)-2-Cyclobutylcarbamoyl-pyrrolidin-1-yl)-2-oxo-ethoxy]-1-phenyl-1H-pyrazole-3-carbonyl}-amino)-3-methyl-butyryl]-piperazine-1-carboxylic acid butyl ester]: 28 nM and 260 nM.
The matching figures for `CCOC(=O)N1CCN(C(=O)[C@H](CCNC(=O)C2CC2)NC(=O)c2cc(OCC(=O)N3CCC[C@H]3C(=O)NC3CCC3)n(-c3ccccc3)n2)CC1` [Example 95, 4-[(S)-2-({5-[2-((S)-2-Cyclobutylcarbamoyl-pyrrolidin-1-yl)-2-oxo-ethoxy]-1-phenyl-1H-pyrazole-3-carbonyl}-amino)-4-(cyclopropanecarbonyl-amino)-butyryl]-piperazine-1-carboxylic acid ethyl ester]: 76 nM and 260 nM.
On the same counts, the results for `CCOC(=O)N1CCN(C(=O)[C@H](CCC(=O)OC)NC(=O)c2cc(OCC(=O)N3CCC[C@H]3C(=O)NC3CCC3)n(-c3ccccc3)n2)CC1` [Example 136, 4-[(S)-2-({5-[2-((S)-2-Cyclobutylcarbamoyl-pyrrolidin-1-yl)-2-oxo-ethoxy]-1-phenyl-1H-pyrazole-3-carbonyl}-amino)-4-methoxycarbonyl-butyryl]-piperazine-1-carboxylic acid ethyl ester] are 39 nM and 260 nM.
Take `CCCCOC(=O)N1CCN(C(=O)[C@H](COC)NC(=O)c2cc(OCC(=O)N3CCC[C@H]3C(=O)NC3CCC3)n(-c3ccccc3)n2)CC1` [Example 232, 4-[(S)-2-({5-[2-((S)-2-Cyclobutylcarbamoyl-pyrrolidin-1-yl)-2-oxo-ethoxy]-1-phenyl-1H-pyrazole-3-carbonyl}-amino)-3-methoxy-propionyl]-piperazine-1-carboxylic acid butyl ester]: the IC50 at human P2Y12 receptor turned out to be 16 nM; in assay [1] (Homo sapiens, Platelet, 20 min) it was 410 nM.
The matching figures for `CCCCOC(=O)N1CCN(C(=O)[C@H](CCCCO)NC(=O)c2cc(OCC(=O)N3CCC[C@H]3C(=O)NC3CCC3)n(-c3ccccc3)n2)CC1` [Example 213, 4-[(S)-2-({5-[2-((S)-2-Cyclobutylcarbamoyl-pyrrolidin-1-yl)-2-oxo-ethoxy]-1-phenyl-1H-pyrazole-3-carbonyl}-amino)-6-hydroxy-hexanoyl]-piperazine-1-carboxylic acid butyl ester]: 22 nM and 330 nM.
In the case of `CCOC(=O)N1CCN(C(=O)[C@H](CC(=O)O)NC(=O)c2cc(OCC(=O)N3CCC[C@H]3C(=O)NCC3CC3)n(-c3cccc(F)c3)n2)CC1` [Example 77, 4-((S)-3-Carboxy-2-{[5-[2-((S)-2-cyclopropylmethyl-carbamoyl-pyrrolidin-1-yl)-2-oxo-ethoxy]-1-(3-fluoro-phenyl)-1H-pyrazole-3-carbonyl]-amino}-propionyl)-piperazine-1-carboxylic acid ethyl ester], the IC50 at human P2Y12 receptor was 28 nM; in assay [1] (ADP-induced aggregation, human platelet rich plasma, 96-well plates, AUC of absorbance over 20 minutes), 160 nM.
In the case of `CCOCCOC(=O)CC[C@H](NC(=O)c1cc(OCC(=O)N2CCC[C@H]2C(=O)NC2CCC2)n(-c2ccccc2)n1)C(=O)N1CCN(C(=O)OCC)CC1` [Example 198, 4-[(S)-2-({5-[2-((S)-2-Cyclobutylcarbamoyl-pyrrolidin-1-yl)-2-oxo-ethoxy]-1-phenyl-1H-pyrazole-3-carbonyl}-amino)-4-(2-ethoxy-ethoxycarbonyl)-butyryl]-piperazine-1-carboxylic acid ethyl ester], the half-inhibitory concentration (IC50) at human P2Y12 receptor was determined as 116 nM; in assay [1] (Homo sapiens, Platelet, 20 min) it was 720 nM.
On to `O=C(O)CC[C@H](NC(=O)c1cc(OCC(=O)N2CCC[C@H]2C(=O)NC2CCC2)n(-c2ccccc2)n1)C(=O)N1CCN(C(=O)OCc2ccccc2)CC1` [Example 159, 4-[(S)-4-Carboxy-2-({5-[2-((S)-2-cyclobutylcarbamoyl-pyrrolidin-1-yl)-2-oxo-ethoxy]-1-phenyl-1H-pyrazole-3-carbonyl}-amino)-butyryl]-piperazine-1-carboxylic acid benzyl ester], for which the IC50 on human P2Y12 receptor stood at 15 nM; in assay [1] (Homo sapiens, Platelet, 20 min) it was 120 nM.
The matching figures for `CCOC(=O)N1CCN(C(=O)[C@H](CCC(=O)OC2CCC2)NC(=O)c2cc(OCC(=O)N3CCC[C@H]3C(=O)NC3CCC3)n(-c3ccccc3)n2)CC1` [Example 131, 4-[(S)-2-({5-[2-((S)-2-Cyclobutylcarbamoyl-pyrrolidin-1-yl)-2-oxo-ethoxy]-1-phenyl-1H-pyrazole-3-carbonyl}-amino)-4-cyclobutoxycarbonyl-butyryl]-piperazine-1-carboxylic acid ethyl ester]: 54 nM and 740 nM.
On the same counts, the results for `CCOC(=O)N1CCN(C(=O)[C@H](CCC(=O)O)NC(=O)c2cc(OCC(=O)N3CCC[C@H]3C(=O)NC3CCC3)n(-c3ccccc3)n2)[C@H](C)C1` [Example 150, (R)-4-[(S)-4-Carboxy-2-({5-[2-((S)-2-cyclobutylcarbamoyl-pyrrolidin-1-yl)-2-oxo-ethoxy]-1-phenyl-1H-pyrazole-3-carbonyl}-amino)-butyryl]-3-methyl-piperazine-1-carboxylic acid ethyl ester] are 20 nM and 70 nM.
Consider `CCOC(=O)N1CCN(C(=O)[C@H](CCC(=O)O)NC(=O)c2cc(OCC(=O)N3CC(F)(F)C[C@H]3C(=O)NC3CCC3)n(-c3ccccc3)n2)CC1` [Example 164, 4-[(S)-4-Carboxy-2-({5-[2-((S)-2-cyclobutylcarbamoyl-4,4-difluoro-pyrrolidin-1-yl)-2-oxo-ethoxy]-1-phenyl-1H-pyrazole-3-carbonyl}-amino)-butyryl]-piperazine-1-carboxylic acid ethyl ester], for which the IC50 on human P2Y12 receptor turned out to be 81 nM; in assay [1] (Homo sapiens, Platelet, 20 min), 40 nM.
The matching figures for `CCOC(=O)N1CCN(C(=O)[C@H](CCC(=O)O)NC(=O)c2cc(OCC(=O)N3CCC[C@H]3C(=O)NCC3CC3)n(-c3cccc(F)c3)n2)CC1` [Example 74, 4-((S)-4-Carboxy-2-{[5-[2-((S)-2-cyclopropylmethylcarbamoyl-pyrrolidin-1-yl)-2-oxo-ethoxy]-1-(3-fluoro-phenyl)-1H-pyrazole-3-carbonyl]-amino}-butyryl)-piperazine-1-carboxylic acid ethyl ester]: 182 nM and 260 nM.
On the same counts, the results for `O=C(O)CC[C@H](NC(=O)c1cc(OCC(=O)N2CCC[C@H]2C(=O)NC2CCC2)n(-c2ccccc2)n1)C(=O)N1CCC(C(=O)c2ccccc2)CC1` [Example 106, (S)-5-(4-Benzoyl-piperidin-1-yl)-4-({5-[2-((S)-2-cyclobutylcarbamoyl-pyrrolidin-1-yl)-2-oxo-ethoxy]-1-phenyl-1H-pyrazole-3-carbonyl}-amino)-5-oxo-pentanoic acid] are 104 nM and 1330 nM.
On the same counts, the results for `CCCCOC(=O)N1CCN(C(=O)[C@H](CCC(=O)OC)NC(=O)c2cc(OCC(=O)N3CCC[C@H]3C(=O)NC3CCC3)n(-c3ccccc3)n2)CC1` [Example 191, 4-[(S)-2-({5-[2-((S)-2-Cyclobutylcarbamoyl-pyrrolidin-1-yl)-2-oxo-ethoxy]-1-phenyl-1H-pyrazole-3-carbonyl}-amino)-4-methoxycarbonyl-butyryl]-piperazine-1-carboxylic acid butyl ester] are 6 nM and 380 nM.
On to `CCOC(=O)N1CCN(C(=O)[C@H](CCC(=O)O)NC(=O)c2cc(OCC(=O)N3CCC[C@H]3C(=O)N3CCCCC3)n(-c3ccccc3)n2)CC1` [Example 18, 4-{(S)-4-Carboxy-2-[(5-{2-oxo-2-[(S)-2-(piperidine-1-carbonyl)-pyrrolidin-1-yl]-ethoxy}-1-phenyl-1H-pyrazole-3-carbonyl)-amino]-butyryl}-piperazine-1-carboxylic acid ethyl ester], for which the half-inhibitory concentration (IC50) at human P2Y12 receptor stood at 146 nM; in assay [1] (Homo sapiens, Platelet, 20 min) it was 70 nM.
On the same counts, the results for `COC(=O)CC[C@H](NC(=O)c1cc(OCC(=O)N2CCC[C@H]2C(=O)NC2CCC2)n(-c2ccccc2)n1)C(=O)N1CCN(C(=O)OC2CCC2)CC1` [Example 189, 4-[(S)-2-({5-[2-((S)-2-Cyclobutylcarbamoyl-pyrrolidin-1-yl)-2-oxo-ethoxy]-1-phenyl-1H-pyrazole-3-carbonyl}-amino)-4-methoxycarbonyl-butyryl]-piperazine-1-carboxylic acid cyclobutyl ester] are 35 nM and 350 nM.
On the same counts, the results for `CCOC(=O)N1CCN(C(=O)[C@H](CCC(=O)O)NC(=O)c2cc(OCC(=O)N3CCC[C@H]3C(=O)NC3CC3)n(-c3cccc(F)c3)n2)CC1` [Example 71, 4-((S)-4-Carboxy-2-{[5-[2-((S)-2-cyclopropylcarbamoyl-pyrrolidin-1-yl)-2-oxo-ethoxy]-1-(3-fluoro-phenyl)-1H-pyrazole-3-carbonyl]-amino}-butyryl)-piperazine-1-carboxylic acid ethyl ester] are 192 nM and 710 nM.

In general, IC50 refers to the midpoint of a concentration-inhibition curve.
